Data taken from US12692238B2, “Substituted pyridazinone herbicides” (FMC CORPORATION, priority 2020, dated 2026).

Assays:
Assay type in all cases: in vivo
[1] = test system: ryegrass, Italian (Italian ryegrass, Lolium multiflorum); assay: Test A postemergence, ryegrass, Italian; conditions: 10 days
Summary of the method: (§1)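 Visual injury rating on a 0–100 scale (100 = complete control) versus untreated plants after 10 days in greenhouse. Treatments: directed soil spray preemergence after sowing in loam/sand, or postemergence on one- to two-leaf plants 2–10 cm high; surfactant-containing non-phytotoxic solvent formulation.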

[2] = test system: foxtail, green (green foxtail, Setaria viridis); assay: Test A preemergence, foxtail, green; conditions: 0 to 100 scale, 10 days
Source text: (§2) Seeds of plant species selected from barnyardgrass (Echinochloa crus-galli), blackgrass (Alopecurus myosuroides), corn (Zea mays), foxtail, giant (giant foxtail, Setaria faberi), foxtail, green (green foxtail, Setaria viridis), goosegrass (Eleusine indica), kochia (Bassia scoparia), oat, wild (wild oat, Avena fatua), palmer amaranth (pigweed, palmer, Amaranthus palmeri), redroot pigweed (Amaranthus retroflexus), ragweed (common ragweed, Ambrosia artemisiifolia), ryegrass, Italian (Italian ryegrass, Lolium multiflorum), and soybean (Glycine max) were planted into a blend of loam soil and sand and treated preemergence with a directed soil spray using test chemicals formulated in a non-phytotoxic solvent mixture which included a surfactant.
(§3) At the same time, plants selected from these crop and weed species and also wheat (Triticum aestivum), galium (catchweed bedstraw, Galium aparine) and horseweed (Erigeron canadensis) were planted in pots containing the same blend of loam soil and sand and treated with postemergence applications of test chemicals formulated in the same manner. Plants ranged in height from 2 to 10 cm and were in the one- to two-leaf stage for the postemergence treatment. Treated plants and untreated controls were maintained in a greenhouse for 10 days, after which time all treated plants were compared to untreated controls and visually evaluated for injury. Plant response ratings, summarized in Table A, are based on a 0 to 100 scale where 0 is no effect and 100 is complete control. A dash (-) response means no test result.

[3] = test system: blackgrass (Alopecurus myosuroides); assay: Test A postemergence, blackgrass; conditions: 10 days
Summary of the method: as §1

[4] = test system: ducksalad (Heteranthera limosa); assay: Test B flooded paddy test, ducksalad; conditions: 250 g ai/ha, Flood; visually evaluated after 10 to 14 days
Summary of the method: (§4)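 Compound is introduced straight into paddy water on flooded pots (3 cm) containing 2-leaf-stage plants. Controls are run alongside, and all plants are rated by eye on a 0–100 scale after 10 to 14 days under glass.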

[5] = test system: ragweed (common ragweed, Ambrosia artemisiifolia); assay: Test A preemergence, ragweed; conditions: 0 to 100 scale, 10 days
Summary of the method: as §1

[6] = test system: ragweed (common ragweed, Ambrosia artemisiifolia); assay: Test A postemergence, ragweed; conditions: 10 days
Summary of the method: as §1

[7] = test system: kochia (Bassia scoparia); assay: Test A postemergence, kochia; conditions: 10 days
Summary of the method: as §1

[8] = test system: barnyardgrass (Echinochloa crus-galli); assay: Test B flooded paddy test, barnyardgrass; conditions: 250 g ai/ha, Flood; visually evaluated after 10 to 14 days
Summary of the method: as §4

[9] = test system: sedge, umbrella (small-flower umbrella sedge, Cyperus difformis); assay: Test B flooded paddy test, sedge, umbrella; conditions: 250 g ai/ha, Flood; visually evaluated after 10 to 14 days
Summary of the method: as §4

[10] = test system: redroot pigweed (Amaranthus retroflexus); assay: Test A postemergence, redroot pigweed; conditions: 10 days
Summary of the method: as §1

[11] = test system: wheat (Triticum aestivum); assay: Test A postemergence, wheat; conditions: 10 days
Summary of the method: as §1

[12] = test system: rice (Oryza sativa); assay: Test B flooded paddy test, rice; conditions: 250 g ai/ha, Flood; visually evaluated after 10 to 14 days
Summary of the method: as §4

[13] = test system: redroot pigweed (Amaranthus retroflexus); assay: Test A preemergence, redroot pigweed; conditions: 0 to 100 scale, 10 days
Summary of the method: as §1

[14] = test system: kochia (Bassia scoparia); assay: Test A preemergence, kochia; conditions: 0 to 100 scale, 10 days
Summary of the method: as §1

[15] = test system: barnyardgrass (Echinochloa crus-galli); assay: Test A preemergence, barnyardgrass; conditions: 10 days
Summary of the method: as §1

[16] = test system: foxtail, green (green foxtail, Setaria viridis); assay: Test A postemergence, foxtail, green; conditions: 10 days
Source text: as §2, §3

[17] = test system: ryegrass, Italian (Italian ryegrass, Lolium multiflorum); assay: Test A preemergence, ryegrass, Italian; conditions: 0 to 100 scale, 10 days
Summary of the method: as §1

[18] = test system: corn (Zea mays); assay: Test A postemergence, corn; conditions: 10 days
Summary of the method: as §1

[19] = test system: barnyardgrass (Echinochloa crus-galli); assay: Test A postemergence, barnyardgrass; conditions: 10 days
Summary of the method: as §1

[20] = test system: galium (catchweed bedstraw, Galium aparine); assay: Test A postemergence, galium; conditions: 10 days
Summary of the method: as §1

[21] = 31 g ai/ha, postemergence, 0 to 100 scale (0 no effect, 100 complete control)
[22] = Postemergence, 125 g ai/ha, 0 to 100 scale
[23] = Postemergence, 31 g ai/ha, 0 to 100 scale
[24] = 125 g ai/ha, 0 to 100 scale (0 no effect, 100 complete control)

| Compound | Plant response rating, Ryegrass, Italian [1, 21] | Plant response rating, Ryegrass, Italian [1, 22] | Plant response rating, Foxtail, Green ([2]; 31 g ai/ha) | Plant response rating, Foxtail, Green ([2]; 125 g ai/ha) | Plant response rating, Blackgrass [3, 22] | Plant response rating, Ducksalad (0 to 100 scale where 0 is no effect and 100 is complete control) [4] | Plant response rating, Ragweed ([5]; 31 g ai/ha) | Plant response rating, Ragweed ([5]; 125 g ai/ha) | Plant response rating, Ragweed [6, 21] | Plant response rating, Ragweed [6, 22] | Plant response rating, Kochia [7, 21] | Plant response rating, Kochia [7, 22] | Plant response rating, Barnyardgrass (0 to 100 scale where 0 is no effect and 100 is complete control) [8] | Plant response rating, Sedge, Umbrella (0 to 100 scale where 0 is no effect and 100 is complete control) [9] | Plant response rating, Pigweed, Redroot [10, 21] | Plant response rating, Pigweed, Redroot [10, 22] | Plant response rating, Wheat [11, 21] | Plant response rating, Wheat [11, 22] | Plant response rating, Rice (0 to 100 scale where 0 is no effect and 100 is complete control) [12] | Plant response rating, Pigweed, Redroot ([13]; 31 g ai/ha) | also measured |
| --- | --- | --- | --- | --- | --- | --- | --- | --- | --- | --- | --- | --- | --- | --- | --- | --- | --- | --- | --- | --- | --- |
| Cc1ccc2ccccc2c1-c1c(OCOC(=O)C(C)C)c(Cl)nn(C)c1=O [Compound 6] | 50 | 70 | 0 | 50 | 40 | 70 | 10 | 80 | 70 | 80 | 10 | 60 | 10 | 75 | 60 | 100 | 0 | 10 | 0 | 90 | Plant response rating, Blackgrass [3, 23]: 0; Plant response rating, Pigweed, Redroot ([13]; 125 g ai/ha): 100; Plant response rating, Kochia ([14]; 31 g ai/ha): 10; Plant response rating, Kochia ([14]; 125 g ai/ha): 50; Plant response rating, Barnyardgrass ([15]; 31 g ai/ha, 0 to 100 scale): 0; Plant response rating, Barnyardgrass [15, 24]: 0; Plant response rating, Foxtail, Green [16, 21]: 0; Plant response rating, Foxtail, Green [16, 22]: 60; Plant response rating, Ryegrass, Italian ([17]; 31 g ai/ha): 20; Plant response rating, Ryegrass, Italian ([17]; 125 g ai/ha): 70; Plant response rating, Corn [18, 23]: 0; Plant response rating, Corn [18, 22]: 0; Plant response rating, Barnyardgrass [19, 23]: 20; Plant response rating, Barnyardgrass [19, 22]: 50; Plant response rating, Galium [20, 21]: 70; Plant response rating, Galium [20, 22]: 90 |
| Cc1ccc2ccccc2c1-c1c(OCOC(=O)C(C)(C)C)c(Cl)nn(C)c1=O [Compound 7] | 50 | 70 | 60 | 100 | 30 | 0 | 50 | 90 | 70 | 90 | 30 | 70 | 0 | 0 | 80 | 90 | 0 | 50 | 0 | 100 | Plant response rating, Blackgrass [3, 23]: 0; Plant response rating, Pigweed, Redroot ([13]; 125 g ai/ha): 100; Plant response rating, Kochia ([14]; 31 g ai/ha): 10; Plant response rating, Kochia ([14]; 125 g ai/ha): 70; Plant response rating, Barnyardgrass ([15]; 31 g ai/ha, 0 to 100 scale): 50; Plant response rating, Barnyardgrass [15, 24]: 90; Plant response rating, Foxtail, Green [16, 21]: 10; Plant response rating, Foxtail, Green [16, 22]: 70; Plant response rating, Ryegrass, Italian ([17]; 31 g ai/ha): 50; Plant response rating, Ryegrass, Italian ([17]; 125 g ai/ha): 90; Plant response rating, Corn [18, 23]: 10; Plant response rating, Corn [18, 22]: 10; Plant response rating, Barnyardgrass [19, 23]: 10; Plant response rating, Barnyardgrass [19, 22]: 80; Plant response rating, Galium [20, 21]: 70; Plant response rating, Galium [20, 22]: 90 |
| Cc1cc(Cl)c2ccc(F)cc2c1-c1c(OCOC(=O)C(C)(C)C)c(C)nn(C)c1=O [Compound 30] | 80 | 100 | 20 | 100 | 80 | 75 | 80 | 90 | 20 | 100 | 10 | 30 | 40 | 100 | 80 | 90 | 20 | 60 | 35 | 80 | Plant response rating, Blackgrass [3, 21]: 40; Plant response rating, Pigweed, Redroot ([13]; 125 g ai/ha): 100; Plant response rating, Kochia ([14]; 31 g ai/ha): 20; Plant response rating, Kochia ([14]; 125 g ai/ha): 20; Plant response rating, Barnyardgrass ([15]; 31 g ai/ha, 0 to 100 scale): 0; Plant response rating, Barnyardgrass [15, 24]: 80; Plant response rating, Foxtail, Green [16, 21]: 30; Plant response rating, Foxtail, Green [16, 22]: 80; Plant response rating, Ryegrass, Italian ([17]; 31 g ai/ha): 100; Plant response rating, Ryegrass, Italian ([17]; 125 g ai/ha): 100; Plant response rating, Corn [18, 21]: 0; Plant response rating, Corn [18, 22]: 10; Plant response rating, Barnyardgrass [19, 21]: 20; Plant response rating, Barnyardgrass [19, 22]: 50; Plant response rating, Galium [20, 21]: 100; Plant response rating, Galium [20, 22]: 100 |
